Patent US8026278B2, “Inhibitors of pyruvate kinase as therapeutic agents for cancer” (priority 2005, dated 2011)

Columns and labels:
[1] = test system: MCF7 (breast) cancer cell line; experiment: MTT assay, inhibition of cell proliferation, MCF7; assay type: cell-based; settings: MCF7, 72 hours
Experimental: (§1) The compounds of the invention were tested for their inhibition potential of cell proliferation. MCF7 (breast) and SF268 (glioma) cancer cell lines were incubated with different concentrations of the compounds and their viability was assessed using an MTT (3-(4,5-dimethylthiazol-2-yl)-2,5-diphenyltetrazolium bromide) assay. The MTT assay is well known in the art (see for example Slater et al., Biochim. Biophys. Acta 77 (1963) 383). The cells were incubated with a given inhibitor for 72 hours and assayed.

[2] = test system: SF268 (glioma) cancer cell line; experiment: MTT assay, inhibition of cell proliferation, SF268; assay type: cell-based; settings: SF268, 72 hours
Experimental: as §1

[3] = target: T1, Pyruvate kinase isolated from rabbit muscle (Oryctolagus cuniculus, UniProt P11974); experiment: Inhibition of pyruvate kinase (indirect assay quantifying ADP production); assay type: biochemical
T1 construct: Pyruvate kinase isolated from rabbit muscle; purchased Sigma-Aldrich; host or cells: rabbit muscle (tissue-derived enzyme)
T1 sequence (P11974 whole entry): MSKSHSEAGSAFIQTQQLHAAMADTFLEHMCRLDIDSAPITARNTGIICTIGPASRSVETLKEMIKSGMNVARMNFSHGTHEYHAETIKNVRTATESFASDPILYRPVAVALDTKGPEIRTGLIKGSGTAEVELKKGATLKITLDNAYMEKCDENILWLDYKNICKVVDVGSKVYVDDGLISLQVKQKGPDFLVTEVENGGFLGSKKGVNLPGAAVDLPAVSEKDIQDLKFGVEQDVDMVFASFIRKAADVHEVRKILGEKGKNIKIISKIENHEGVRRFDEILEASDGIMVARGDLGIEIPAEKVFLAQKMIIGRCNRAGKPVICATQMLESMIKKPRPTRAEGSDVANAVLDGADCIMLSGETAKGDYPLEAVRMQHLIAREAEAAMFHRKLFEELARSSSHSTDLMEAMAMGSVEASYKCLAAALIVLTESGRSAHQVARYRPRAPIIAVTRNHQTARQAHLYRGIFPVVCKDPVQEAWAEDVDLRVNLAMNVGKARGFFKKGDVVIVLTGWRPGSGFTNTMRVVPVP
Experimental: The compounds E-3-chlorophosphoenolpyruvate ditriethyl-ammonium salt (ECPDAT), Z-3-chlorophosphoenolpyruvate tritriethyl-ammonium salt (CPTP), phosphoenol-3-bromo-pyruvic acid mono-cyclohexyl ammonium salt (PBPA), 2-bromooxoethylphosphonic acid mono-cyclohexyl-ammonium salt (BOEPA) and 3-bromopyruvic acid (BrPyA) were tested for their efficiency at inhibiting pyruvate kinase. Pyruvate kinase isolated from rabbit muscle was purchased from Sigma-Aldrich. Pyruvate kinase was assayed indirectly by quantifying ADP production formed in the reaction ATP+pyruvate to ADP+phosphoenolpyruvate. Inhibitors were added to the reaction mixture immediately before the reaction was started by the addition of ATP.

E-3-chlorophosphoenolpyruvate ditriethyl-ammonium salt [E-CPDA]
Inhibition of cell proliferation [1]: inhibited cell proliferation
% (A-Blank relative to control) ([1]; 10 uM): 101.1%
A-Blank (Average-Blank) O.D. at 570 nm ([1]; 10 uM): 0.8245 O.D.
Average O.D. reading at 570 nm ([1]; 10 uM): 0.91 O.D.
% (A-Blank relative to control) ([1]; 25 uM): 97.333%
A-Blank (Average-Blank) O.D. at 570 nm ([1]; 25 uM): 0.7938 O.D.
Average O.D. reading at 570 nm ([1]; 25 uM): 0.8793 O.D.
% (A-Blank relative to control) ([1]; 50 uM): 86.726%
A-Blank (Average-Blank) O.D. at 570 nm ([1]; 50 uM): 0.7073 O.D.
Average O.D. reading at 570 nm ([1]; 50 uM): 0.7928 O.D.
% (A-Blank relative to control) ([1]; 75 uM): 78.449%
A-Blank (Average-Blank) O.D. at 570 nm ([1]; 75 uM): 0.6398 O.D.
Average O.D. reading at 570 nm ([1]; 75 uM): 0.7253 O.D.
% (A-Blank relative to control) ([1]; 100 uM): 72.072%
A-Blank (Average-Blank) O.D. at 570 nm ([1]; 100 uM): 0.5878 O.D.
Average O.D. reading at 570 nm ([1]; 100 uM): 0.6733 O.D.
% (A-Blank relative to control) ([1]; 200 uM): 68.486%
A-Blank (Average-Blank) O.D. at 570 nm ([1]; 200 uM): 0.5585 O.D.
Average O.D. reading at 570 nm ([1]; 200 uM): 0.644 O.D.
% (A-Blank relative to control) ([1]; 300 uM): 7.8786%
A-Blank (Average-Blank) O.D. at 570 nm ([1]; 300 uM): 0.06425 O.D.
Average O.D. reading at 570 nm ([1]; 300 uM): 0.1497 O.D.
% (A-Blank relative to control) ([1]; 500 uM): 2.759%
A-Blank (Average-Blank) O.D. at 570 nm ([1]; 500 uM): 0.0225 O.D.
Average O.D. reading at 570 nm ([1]; 500 uM): 0.108 O.D.
Inhibition of cell proliferation [2]: inhibited cell proliferation
% (A-Blank relative to control) ([2]; 10 uM): 80.1%
A-Blank (Average-Blank) O.D. at 570 nm ([2]; 10 uM): 0.672 O.D.
Average O.D. reading at 570 nm ([2]; 10 uM): 0.777 O.D.
% (A-Blank relative to control) ([2]; 25 uM): 80.453%
A-Blank (Average-Blank) O.D. at 570 nm ([2]; 25 uM): 0.675 O.D.
Average O.D. reading at 570 nm ([2]; 25 uM): 0.78 O.D.
% (A-Blank relative to control) ([2]; 50 uM): 64.243%
A-Blank (Average-Blank) O.D. at 570 nm ([2]; 50 uM): 0.539 O.D.
Average O.D. reading at 570 nm ([2]; 50 uM): 0.644 O.D.
% (A-Blank relative to control) ([2]; 75 uM): 44.458%
A-Blank (Average-Blank) O.D. at 570 nm ([2]; 75 uM): 0.373 O.D.
Average O.D. reading at 570 nm ([2]; 75 uM): 0.478 O.D.
% (A-Blank relative to control) ([2]; 100 uM): 30.513%
A-Blank (Average-Blank) O.D. at 570 nm ([2]; 100 uM): 0.256 O.D.
Average O.D. reading at 570 nm ([2]; 100 uM): 0.361 O.D.
% (A-Blank relative to control) ([2]; 200 uM): 13.23%
A-Blank (Average-Blank) O.D. at 570 nm ([2]; 200 uM): 0.111 O.D.
Average O.D. reading at 570 nm ([2]; 200 uM): 0.216 O.D.
% (A-Blank relative to control) ([2]; 300 uM): 6.555%
A-Blank (Average-Blank) O.D. at 570 nm ([2]; 300 uM): 0.055 O.D.
Average O.D. reading at 570 nm ([2]; 300 uM): 0.16 O.D.
% (A-Blank relative to control) ([2]; 500 uM): 3.099%
A-Blank (Average-Blank) O.D. at 570 nm ([2]; 500 uM): 0.026 O.D.
Average O.D. reading at 570 nm ([2]; 500 uM): 0.131 O.D.
Inhibition of pyruvate kinase compared with BrPyA [3]: inhibited pyruvate kinase at lower concentrations than BrPyA
% Inhibition ([3]; Concentration 0.1 μM): 0%
% Inhibition ([3]; Concentration 1 μM): 10.9%
% Inhibition ([3]; Concentration 10 μM): 100%

Z-3-chlorophosphoenolpyruvate tritriethyl-ammonium salt [CPTP]
Inhibition of cell proliferation [1]: inhibited cell proliferation
% (A-Blank relative to control) ([1]; 10 uM): 98.7%
A-Blank (Average-Blank) O.D. at 570 nm ([1]; 10 uM): 0.7995 O.D.
Average O.D. reading at 570 nm ([1]; 10 uM): 0.8822 O.D.
% (A-Blank relative to control) ([1]; 25 uM): 98.796%
A-Blank (Average-Blank) O.D. at 570 nm ([1]; 25 uM): 0.8003 O.D.
Average O.D. reading at 570 nm ([1]; 25 uM): 0.883 O.D.
% (A-Blank relative to control) ([1]; 50 uM): 101.05%
A-Blank (Average-Blank) O.D. at 570 nm ([1]; 50 uM): 0.8185 O.D.
Average O.D. reading at 570 nm ([1]; 50 uM): 0.9013 O.D.
% (A-Blank relative to control) ([1]; 75 uM): 96.173%
A-Blank (Average-Blank) O.D. at 570 nm ([1]; 75 uM): 0.779 O.D.
Average O.D. reading at 570 nm ([1]; 75 uM): 0.8618 O.D.
% (A-Blank relative to control) ([1]; 100 uM): 96.358%
A-Blank (Average-Blank) O.D. at 570 nm ([1]; 100 uM): 0.7805 O.D.
Average O.D. reading at 570 nm ([1]; 100 uM): 0.8633 O.D.
% (A-Blank relative to control) ([1]; 200 uM): 88.241%
A-Blank (Average-Blank) O.D. at 570 nm ([1]; 200 uM): 0.7148 O.D.
Average O.D. reading at 570 nm ([1]; 200 uM): 0.7975 O.D.
% (A-Blank relative to control) ([1]; 300 uM): 81.4198%
A-Blank (Average-Blank) O.D. at 570 nm ([1]; 300 uM): 0.6595 O.D.
Average O.D. reading at 570 nm ([1]; 300 uM): 0.7422 O.D.
% (A-Blank relative to control) ([1]; 500 uM): 71.39%
A-Blank (Average-Blank) O.D. at 570 nm ([1]; 500 uM): 0.5783 O.D.
Average O.D. reading at 570 nm ([1]; 500 uM): 0.661 O.D.
Inhibition of cell proliferation [2]: inhibited cell proliferation
% (A-Blank relative to control) ([2]; 10 uM): 99.42%
A-Blank (Average-Blank) O.D. at 570 nm ([2]; 10 uM): 0.6887 O.D.
Average O.D. reading at 570 nm ([2]; 10 uM): 0.775 O.D.
% (A-Blank relative to control) ([2]; 25 uM): 99.892%
A-Blank (Average-Blank) O.D. at 570 nm ([2]; 25 uM): 0.692 O.D.
Average O.D. reading at 570 nm ([2]; 25 uM): 0.7783 O.D.
% (A-Blank relative to control) ([2]; 50 uM): 98.232%
A-Blank (Average-Blank) O.D. at 570 nm ([2]; 50 uM): 0.6805 O.D.
Average O.D. reading at 570 nm ([2]; 50 uM): 0.7668 O.D.
% (A-Blank relative to control) ([2]; 75 uM): 93.829%
A-Blank (Average-Blank) O.D. at 570 nm ([2]; 75 uM): 0.65 O.D.
Average O.D. reading at 570 nm ([2]; 75 uM): 0.7363 O.D.
% (A-Blank relative to control) ([2]; 100 uM): 96.752%
A-Blank (Average-Blank) O.D. at 570 nm ([2]; 100 uM): 0.6703 O.D.
Average O.D. reading at 570 nm ([2]; 100 uM): 0.7565 O.D.
% (A-Blank relative to control) ([2]; 200 uM): 75.893%
A-Blank (Average-Blank) O.D. at 570 nm ([2]; 200 uM): 0.5258 O.D.
Average O.D. reading at 570 nm ([2]; 200 uM): 0.612 O.D.
% (A-Blank relative to control) ([2]; 300 uM): 57.4883%
A-Blank (Average-Blank) O.D. at 570 nm ([2]; 300 uM): 0.3982 O.D.
Average O.D. reading at 570 nm ([2]; 300 uM): 0.4845 O.D.
% (A-Blank relative to control) ([2]; 500 uM): 36.8459%
A-Blank (Average-Blank) O.D. at 570 nm ([2]; 500 uM): 0.2552 O.D.
Average O.D. reading at 570 nm ([2]; 500 uM): 0.3415 O.D.
Inhibition of pyruvate kinase compared with BrPyA [3]: inhibited pyruvate kinase at lower concentrations than BrPyA
% Inhibition ([3]; Concentration 0.1 μM): 0%
% Inhibition ([3]; Concentration 1 μM): 43.7%
% Inhibition ([3]; Concentration 10 μM): 48.4%
